Structures are written as SMILES.

Series [1] is described as follows: Metabolic Stability Study, liver microsome incubation (human). The format is in vitro ADME. Particulars: human liver microsomes 0.5 mg/mL, 1 μM compound, NADPH; read-out: CLint (μL × min^−1 × mg^−1) Human. The protocol:
(§1) Biological Example: Metabolic Stability Study
(§2) The metabolic stability of some compounds was evaluated by using the liver microsome incubation system in vitro. Briefly, the test compounds at 1 μM, were incubated with 0.5 mg/mL liver microsomes from different species (human, dog, rat and mouse) with an NADPH regenerating system at 37° C. Samples were quenched at three time points (0, 30, 60 min) with organic solvent containing internal standards, and the supernatant was analyzed for parent loss via LC-MS/MS. Midazolam was used as the positive control to validate the incubation system.
(§3) where Cprotein is the microsomal protein concentration in the incubation system.
(§4) The value of CLint and T1/2 of Example F132b in WO2019210818 and representative compounds of the disclosure were determined, and the results are shown in Table 5.
Background: Microsomes from liver hold many membrane-bound enzymes, among them those of drug oxidation.

Series [2] is described as follows: Metabolic Stability Study, liver microsome incubation (mouse). Particulars: mouse liver microsomes 0.5 mg/mL, 1 μM compound, NADPH; read-out: CLint (μL × min^−1 × mg^−1) mouse. The format is in vitro ADME. As to the method:
as §1, §2, §3, §4

Series [3] deals with RS4;11 (BCL-2 dependent acute lymphoblastic leukemia cell line). In words: RS4;11 Cell Proliferation Assay. The format is cell-based. The settings on record: Homo sapiens, RS4;11 cells, read-out: Cellular proliferation assay (IC50, nM) RS4. In outline:
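Viability measured via CellTiter-Glo luminescence after a 48 h, 37 °C exposure to compounds (10 points, highest 1 μM). Seeding was 50,000 RS4;11 cells per well in 10% FBS RPMI-1640; IC50 given as mean.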

The subject of series [4] is BCL-2 G101V knock-in cell line H96 (derive from RS4;11). In words: Bcl 2-G101V Knock-In RS4;11 Cell Proliferation Assay. The format is cell-based. The settings on record: Homo sapiens, RS4-11, 48 h, RS4;11 Bcl-2 G101V knock-in clone H96, 48 hrs, CellTiter-GLO, read-out: Cellular proliferation assay (IC50, nM) RS4. In outline: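 CellTiter-Glo luminescence after 48 h, 37 °C compound treatment (10 concentrations, maximum 1 μM or 10 μM) gave mean IC50 values. Cells were 50,000 per well of H96, a BCL2-G101V knock-in single clone derived from RS4;11 by Cas9 editing.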
(In general: ATP-based viability assays read luminescence as a measure of living cells.)

As to `CC(C)c1ccccc1[C@@H]1CN(Cc2ccc(OC3CC3)c(OC3CC3)c2)CCN1C1CC2(C1)CN(c1ccc(C(=O)NS(=O)(=O)c3ccc(NC[C@H]4CC[C@](C)(O)CC4)c([N+](=O)[O-])c3)c(Oc3cnc4[nH]cc(F)c4c3)c1)C2` [Example 363, 4-(6-((R)-4-(3,4-dicyclopropoxybenzyl)-2-(2-isopropylphenyl)piperazin-1-yl)-2-azaspiro[3.3]heptan-2-yl)-2-((3-fluoro-1H-pyrrolo[2,3-b]pyridin-5-yl)oxy)-N-((4-((((1r,4r)-4-hydroxy-4-methylcyclohexyl)methyl)amino)-3-nitrophenyl)sulfonyl) benzamide], the microsomal CLint at 1 μM in series [1] and in series [2] was less than 1 µL/min/mg each time. Also, the figures for the IC50 in series [3] and in series [4] were 0.11 nM and 0.14 nM, respectively.
